Where two headings read alike, the source gives them in different places.
Legend:
MOR = conditions: cited from earlier work
parental HEK293 cells = assay type: cell-based, human
[1] = system: MOR G-protein signaling in HEK-MOR cells; assay type: cell-based, human
[2] = system: MOR kinase pathways in HEK-MOR cells; assay type: cell-based, human

## COc1ccc2c3c1O[C@H]1[C@@H](O)C=C[C@H]4[C@@H](C2)NCC[C@@]341 [(-)-norcodeine]
MOR
  Ki: 267 nM

## O=C1/C(=C/c2ccccc2)C[C@@]2(O)[C@H]3Cc4ccc(O)c5c4[C@@]2(CCN3CC2CC2)[C@H]1O5 [BNTX]
Parental HEK293 cells
  DMR produced by ligand in parental HEK293 cells: negative DMR
MOR
  Ki: 18 nM

## O=C(Cc1ccc(Cl)c(Cl)c1)N1CCCCC1CN1CCCC1 (stereo not drawn) [BRL-52537]
[1]
  ligand-induced DMR in cholera toxin (CTx)-pretreated cells vs untreated: reduce
[2]
  maximal DMR response after SB202190 pretreatment vs untreated: significantly reduced
MOR
  Ki: 1560 nM

## C[C@@H](NC(=O)[C@@H](N)Cc1ccc(O)cc1)C(=O)NCC(=O)N(C)[C@@H](Cc1ccccc1)C(=O)NCCO [DAMGO]
[1]
  ligand-induced DMR in pertussis toxin (PTx)-pretreated cells: small P-DMR
[2]
  maximal DMR response after SB202190 pretreatment vs untreated: not completely blunted

## CN(C(=O)Cc1ccc(Cl)c(Cl)c1)[C@H](CN1CCCC1)c1cccc(N=C=S)c1 [DIPPA, 2-(3,4-Dichlorophenyl)-N-methyl-N-[(1S)-1-(3-isothiocyanatophenyl)-2-(1-pyrrolidinyl)ethyl]acetamide]
[2]
  late DMR response after U0126 pretreatment vs untreated: significantly suppressed
  maximal DMR response after SB202190 pretreatment vs untreated: significantly reduced
  maximal DMR response after U0126 pretreatment vs untreated: sensitive
MOR
  IC50: 1800 nM

## CN(C(=O)Cc1ccc(Cl)c(Cl)c1)[C@H](CN1CCCC1)c1ccccc1 [ICI 199,441]
Parental HEK293 cells; ligand 10 µM
  DMR produced by ligand in parental HEK293 cells: small N-DMR

## Oc1ccc2c3c1O[C@H]1c4c(c5ccccc5n4Cc4ccccc4)C[C@@]4(O)[C@@H](C2)N(CC2CC2)CC[C@]314 [N-benzylnaltrindole]
MOR
  IC50: 11.2 nM

## Oc1ccc2c3c1O[C@H]1c4oc5ccccc5c4C[C@@]4(O)[C@@H](C2)N(CC2CC2)CC[C@]314 [Naltriben]
MOR
  Ki: 80.8 nM

## C=CCN1CCC2(C)c3cc(O)ccc3CC1C2C (stereo not drawn) [SKF10047]
MOR
  Ki: 1900 nM

## NC(=O)[C@H](Cc1ccccc1)NC(=O)[C@H](Cc1ccccc1)NC(=O)[C@@H]1CCCN1C(=O)[C@@H](N)Cc1ccc(O)cc1 [endomorphin-2]
[1]
  ligand-induced DMR in cholera toxin (CTx)-pretreated cells vs untreated: reduce
MOR
  Ki: 0.43 nM

## C=CCN1CC[C@]23CCCC[C@H]2[C@H]1Cc1ccc(O)cc13 [levallorphan]
MOR
  Ki: 1.7 nM

## C=CC[N+]1(C)CC[C@]23c4c5ccc(O)c4O[C@H]2C(=O)CC[C@@]3(O)[C@H]1C5 (stereo partly drawn) [naloxone methionone]
MOR
  Ki: 28.9 nM

## COc1cccc(C2(O)CCCCC2CN(C)C)c1 (stereo not drawn) [tramadol]
[2]
  maximal DMR response after SB202190 pretreatment vs untreated: significantly reduced
  maximal DMR response after U0126 pretreatment vs untreated: sensitive

## COC(=O)/C=C/C(=O)N[C@@H]1CC[C@@]2(O)[C@H]3Cc4ccc(O)c5c4[C@@]2(CCN3CC2CC2)[C@H]1O5 [β-funaltrexamine]
[2]
  late DMR response after SP100625 pretreatment vs untreated: potentiated
  maximal DMR response after SP100625 pretreatment vs untreated: enhanced
MOR
  Ki: 0.33 nM

## (D-Ala^2, D-Leu^5) enkephalin
MOR
  Kd: 150 nM

## (met^5)-enkephalin
MOR
  Ki: 3 nM

## DPDPE
MOR
  Kd: 600 nM

## DSLET
[2]
  maximal DMR response after SB202190 pretreatment vs untreated: significantly reduced
MOR
  Kd: 120 nM

## deltorphin II
MOR
  Kd: 3.3 nM

## dynorphin A 1-8
MOR
  Ki: 22.3 nM

## dynorphin A 1-13
[2]
  maximal DMR response after SB202190 pretreatment vs untreated: significantly reduced
  maximal DMR response after SP100625 pretreatment vs untreated: enhanced
MOR
  Kd: 31 nM

## dynorphin B
MOR
  Ki: 13 nM

## morphiceptin
MOR
  IC50: 19.8 nM

## nociceptin 1-13: ORL1 agonist
MOR
  Ki: 270 nM

— article PMC3189208 (PLoS ONE, 2011)
